Series [1] has as its system Per2. Put plainly: qPCR of circadian gene Per2 after microinfusion into the NAc. The following applies: 1nmolar NPB or 1 µmolar CYM50769 into NAc, tissue 24 h later. Type of series: in vivo, mice. The text has this: (§1) RNA purification and quantification. […] RNA was washed in isopropanol and 75% Ethanol. […] Primer sequences are listed in the supplementary material. Quantitative PCR results were processed as described ^22.
(§2) AAVs, stereotaxic surgery and microinjection.

For series [2], the system named is mice. Put plainly: Tests for depressive-like behavior (forced swim, splash, sucrose preference) 24 h after ligand microinjection. Type of series: in vivo. The following applies: 24 h later; for behavioral effects of CVS: CVS mice, 1 nM NPB or 1 µM CYM50769 into NAc after last stress session; for depressive-like behaviors: naïve mice, 1 nM NPB or 1 µM CYM50769 into NAc. On the procedure: as §2
(§3) Behavioral tests and CVS. The acute behavioral tests forced swim test, tail suspension test, sucrose preference, splash test and novelty suppressed feeding were performed as described ^13,23. After CVS, no tail suspension test was conducted, as tail suspension is part of the stress-induction protocol. For CVS-groups, caffeine was injected at the last day of CVS (day 21), just prior to the stressor. The CVS-protocol was performed as described ^13. […] Stressors consist of one hour of either, tube restraint, tail suspension or 100 mild electric random […]. If only female experimenters were present, a used male t-shirt was wrapped in clean protective clothing from the animal unit and placed into the experimental room in order to avoid variability due to sex-specific scents of the scientists ^24. All experiments were conducted in the light phase of the light-cycle to allow comparability with previous experiments ^22.
Next, the rapid effects of Npbwr1 activity were tested on depressive-like behaviors in vivo. To that end, mice underwent CVS and were microinjected with 1 nM NPB and 1 µm CYM50769 after the last session of stress induction. Behavioral tests were conducted 24 h later. […] In contrast, CYM50769 had no effects in naïve mice.

Series [3] relates to mice. As to the kind of experiment: Splash test after CVS and ligand microinfusion. Type of series: in vivo. To be noted: naive mice; tested app. 24 h after microinfusion. The method, then: as §2, §3
In series [4] the test system is Bdnf. As to the kind of experiment: Bdnf qPCR after microinfusion of Npbwr1 ligands into the NAc. It counts as in vivo, mice.
From the text: as §1, §2

Series [5] concerns mice. As to the kind of experiment: Sucrose preference after CVS and ligand microinfusion. It counts as in vivo. The following applies: tested app. 24 h after microinfusion. On the procedure:
as §2, §3

In series [6] the test system is mouse brain. To be noted: intracerebroventricular injection; reference 15; cited from earlier work.
Series [7] deals with mice. Put plainly: Forced swim test after CVS and ligand microinfusion. It counts as in vivo. To be noted: naive mice; 1 nM NPB or 1 µM CYM50769 into NAc; tested app. 24 h later. The method, then: as §2, §3
For series [8], the system named is Npbwr1. Put plainly: Npbwr1 expression in NAc after caffeine (RNA-sequencing, qPCR). It counts as in vivo, mice.
From the text: as §1
(§4) Next-generation RNA-sequencing. An in-house RNA-sequencing analysis pipeline was applied as described ^25. After artificial depletion of ribosomal RNA (rRNA) transcripts from the data set, more than 90% of reads aligned to the reference genome GRCm38, indicating excellent sample quality. Only changes that reached an adjusted P-value < 0.05 and a log2FC 0.5 <> - 0.5 were further considered.
(§5) To determine caffeine-regulate transcripts, next-generation RNA-sequencing 2h after caffeine-injection on NAc of wildtype (WT) and T75A mice were performed. Tissue was collected at four time points along the diurnal clock ^14. As expected, significant changes in circadian markers were observed, which oscillated in the expected manner across the four measured time points (Per1, Per2, Cry1, Bmal), both in WT and T75A-DARPP-32 mutant mice (Figure 3). […] Altered transcripts belonged to a variety of cellular signaling pathways, including synaptic transmission, transcriptional regulation and hormonal signaling (Figure 4C).

The test system of series [9] is mice. Put plainly: Behavioral tests after chronic variable stress (CVS), 24h after caffeine. Type of series: in vivo. To be noted: female mice after CVS, 7.5 mg/kg caffeine i.p., tested 24h later. On the procedure: as §3
Series [10] deals with mice. The following applies: both sexes; reference 14; cited from earlier work.
Series [11] concerns NAc of wildtype (WT) and DARPP-32-T75A mutant mice. Put plainly: RNA-sequencing of NAc 2h after caffeine injection. It counts as in vivo. The following applies: active and inactive phases. On the procedure:
as §4, §5

Series [12] deals with circadian genes. Put plainly: Read-counts of circadian genes (Per1, Per2, Cry, Bmal) after caffeine. It counts as in vivo, mice. The following applies: normalized read-counts for Per1, Per2, Cry, 2h after caffeine. The method, then:
as §4, §5

For series [13], the system named is mice. Put plainly: Escape behavior tests in naive WT and T75A mice 24h after caffeine. Type of series: in vivo. The following applies: naïve WT mice; 7.5 mg/kg caffeine in the dark phase; tested 24h later. On the procedure: as §3
Series [14] concerns NAc dendritic spines. As to the kind of experiment: NAc dendritic spine analysis after CVS and caffeine. Type of series: in vivo, mice.
From the text: as §2
Dendritic spine analysis. The analysis was based on detecting the AAVs' GFP-fluorophores. Photos of 40 µm PFA-fixed brain sections were taken with a Zeiss LSM 880 confocal microscope using the AiryScan method. Maximum intensity projections were obtained using Zen Black and Zen Blue software and analysed in NeuronStudio (CNIC, Mount Sinai School of Medicine). The total density of spines, proportions of thin, mushroom and stubby spines as well as the cumulative neck-length were determined in Graph Prism. Neck-containing mushroom density refer to the sum of thin and mushroom spine densities.

Series [15] concerns Casp3. Put plainly: qPCR of apoptosis marker Casp3 after microinfusion into the NAc. It counts as in vivo, mice. To be noted: 1nmolar NPB or 1 µmolar CYM50769 into NAc, tissue 24 h later.
From the text: as §1, §2

Series [16] concerns Bcl2. Put plainly: qPCR of apoptosis marker Bcl2 after microinfusion into the NAc. Type of series: in vivo, mice. To be noted: 1nmolar NPB or 1 µmolar CYM50769 into NAc, tissue 24 h later.
From the text: as §1, §2

The subject of series [17] is mice. Put plainly: Splash test after CVS and ligand microinfusion. It counts as in vivo. The following applies: tested app. 24 h after microinfusion. On the procedure: as §3, with “Drugs” for “Behavioral tests”, “chemicals. […]” for “CVS. The acute behavioral tests forced swim test, tail suspension test, sucrose preference, splash test and novelty suppressed feeding were performed as described ^13,23.”, “For CVS-groups, caffeine was injected at the last day of CVS (day 21), just prior to the stressor.” left out

Series [18] concerns mice. Put plainly: Forced swim test after CVS and ligand microinfusion. To be noted: microinfused after last stress induction, tested app. 24 h later. It counts as in vivo. The method, then: as §3, with “Drugs” for “Behavioral tests”, “chemicals. […]” for “CVS. The acute behavioral tests forced swim test, tail suspension test, sucrose preference, splash test and novelty suppressed feeding were performed as described ^13,23.”, “For CVS-groups, caffeine was injected at the last day of CVS (day 21), just prior to the stressor.” left out

Series [19] deals with mice. The following applies: acute microinfusion into NAc.
Description: Drugs and chemicals. Mice were intraperitoneally (i.p.) injected with 7.5 mg/kg caffeine (#, C0750, Sigma) or saline at an injection volume of 10ml/kg body weight and tested 2 or 24 h later.
In order to address the rapid acting aspects of the Npbwrl-pathway, ligands were microinjected into the NAc that activate (NPB) or inhibit (CYM50769) Npbwr1. While NPB is a natural neurotransmitter, CYM50769 is a synthetic ligand, which has not been tested in vivo. […] Doses of 0.1 µM, 1 µM and 10 µM CYM50769 were injected and mice were scored for health markers for 7 days.
The mark [20] stands for this setting: 1nmolar NPB or 1 µmolar CYM50769 microinfused into NAc, tissue collected 24 h later.

“Also recorded” adds a separate entry of the source.

With “NPB: natural agonist of Npbwr1, a natural neurotransmitter; short biologically active peptide (#CSB-MP015971HU-100, Cusabio)”, in series [1], the “Per2 (circadian gene)” value is recorded as “not affected; also recorded: did not alter”. In addition, in series [2], the “behavioral effects of CVS” value was “not enhancing the behavioral effects of CVS further” and the depressive-like behaviors entry is “elicited depressive-like behaviors; also recorded: increased depressive-like behaviors; also recorded: mimicked chronic stress effects”. Besides, the “Splash test, grooming” value in series [3] is reported as “may reduce grooming”. For the same compound, the Bdnf result in series [4] (setting [20]) is reported as “decreases Bdnf; also recorded: altered Bdnf-levels; also recorded: opposing effect on Bdnf”. For the same compound, the “Sucrose preference, ratio of sucrose solution consumed” value in [5] (naive mice) is reported as “reduce the ratio of sucrose solution consumed”. Moreover, the feeding result in [6] was “induced hyperphagia after 2 h, followed by hypophagia”. Further, the “Forced swim test, immobility time” value in series [7] is reported as “increases immobility time”.

Consider `Cn1c(=O)c2c(ncn2C)n(C)c1=O` [caffeine], for which the Npbwr1 levels entry in series [8] (24h after caffeine injection, dark phase) is given as “decreased; also recorded: reduced”. Besides, the Npbwr1 expression result in series [8] (WT mice, 2h after caffeine injection, end of the dark phase) was “increased”. For the same compound, the stress-induced behavioral changes result in series [9] is listed as “reversed; also recorded: improved stress-induced behavioral changes”. For the same compound, in series [10], the mood-elevating effects entry was “only occurred in the active (dark) phase”. Further, the caffeine-induced transcriptional changes result in series [11] is reported as “biggest effect of caffeine occurs in WT in the active phase; also recorded: occurred in WT in the active (dark) phase”. In addition, the “amplitude of circadian oscillations” value in series [12] was “may slightly flatten the amplitude”. Besides, the Escape behaviors entry in [13] was “altered”. Further, in series [14] (females, 24h after caffeine injection), the “CVS-induced changes in NAc dendritic spines” value is on record as “reversed by caffeine back to naive levels”. The Cumulative head diameter entry was “reversed” in series [14] (females, CVS, 24h after caffeine) and “reversed” in [14] (males, CVS, caffeine). Also, the CVS-induced spine changes entry in [14] (males, CVS, caffeine) was “partially reversed”.

For the compound `COc1ccc(Oc2c(Cl)cnn(C3c4ccccc4-c4ccccc43)c2=O)cc1` [CYM50769], in series [1], the “Per2 (circadian gene)” value was “not affected; also recorded: did not alter”. For the same compound, the entries for the “behavioral effects of CVS” value in [2] and in [2] (listed as CYM5069) were “rescued CVS-effects; also recorded: blocked those” and “reversed effects of chronic stress on behavior”, respectively. Further, the depressive-like behaviors entry in series [2] was “no effects”. Moreover, the “Casp3 (apoptosis marker)” value in series [15] is recorded as “does not alter; also recorded: Neither NPB nor CYM50769 affected”. Moreover, the “Bcl2 (apoptosis marker)” value in [16] is recorded as “No effect; also recorded: Neither NPB nor CYM50769 affected”. Further, the Bdnf result in [4] (setting [20]) is on record as “increases Bdnf; also recorded: altered Bdnf-levels”; in series [4] (1 µmolar CYM50769 microinfused into NAc, single dose, tissue collected 7 days later), “persists at the 7 day time point”; in [4] (1 µmolar CYM50769 microinfused into NAc, single dose, tissue collected 7 days later, listed as CYM5069), “altered Bdnf levels starting at 24h for up to 7 days”. Besides, the “Sucrose preference, CVS-effects” value in series [5] was “rescues CVS-effects”. Further, the “Splash test, CVS-effects” value in series [17] is listed as “blocks CVS-effects”. For the same compound, the “Forced swim test, CVS-effects” value in series [18] is listed as “blocks CVS-effects”. The “selectivity and tolerability of an acute dose” value in series [19] was “selective and well tolerated”.

Values taken from patent EP4512403A1, “NEUROPEPTIDE B AND W-RECEPTOR AS A TARGET FOR TREATING MOOD DISORDERS AND/OR CHRONIC STRESS” (Friedrich-Schiller-Universität Jena, priority 2023, dated 2025).
